Test results as given in patent US9440981B2, “Pyrrolo[2, 1-F] [1,2,4]triazine derivative and use thereof for treating tumors” (PHARMABLOCK (NANJING) R&D CO. LTD., priority 2012, dated 2016).

Assays:
Format in all cases: cell-based
[1] = tested on: human prostatic cancer cell line PC-3; test: MTT assay, growth inhibition of PC-3 cells; conditions: 96-hr culture, read-out: IC50 ± SD, PC-3
Description: (§1) The inhibition of the compounds of the present invention on growth of a variety of human tumor cell lines is evaluated by MTT assay.
(§2) Method: cells in exponential phase (human gastric cancer cell line SGC-7901, human non-small cell lung cancer cell line A549, human breast cancer cell line BT-549, human prostatic cancer cell line PC-3, human colon cancer cell line HT-29, and human liver cancer cell line SMMC-7721) are seeded at a density of 1.5×10^4 in a 96-well plate. After 24-hr culture, the cells are grown to confluent and the previous culture medium is aspirated. The test includes a control group, and a treatment group. In the control group, a 1640 medium containing 10% fetal bovine serum is replenished; and in the treatment group, a medium containing 100 μM, 50 μM, 10 μM, 1 μM, 0.1 μM, 0.01 μM, 0.001 μM, 0.0001 μM, and 0.00001 μM test compound is replenished. After 96-hr culture, 5 mg/mL MTT is added, and cultured in a CO2 incubator for another 4 hrs. Then, 100 μL of the supernatant is aspirated from the upper portion of the culture medium, and placed in the dark for 10 min after 100 μL DMSO is added. The absorbance (at 570 nm) is measured on a microplate reader (available from Sunrise Co., Ltd.), and the cell viability is calculated from the absorbance. 6 replicate wells are set for each treatment. Cell viability (%)=ΔODtreatment/ΔODcontrol×100.
(§3) The ID50 values of six compounds for inhibiting the growth of numerous human tumor cell lines are calculated by Sigmaplot 10.0 software and are shown in Table 1.

[2] = tested on: human non-small cell lung cancer cell line A549; test: MTT assay, growth inhibition of A549 cells; conditions: 96-hr culture, read-out: IC50 ± SD, A549
Description: as §1, §2, §3

[3] = tested on: human colon cancer cell line HT-29; test: MTT assay, growth inhibition of HT-29 cells; conditions: 96-hr culture, read-out: IC50 ± SD, HT-29
Description: as §1, §2, §3

[4] = tested on: human breast cancer cell line BT-549; test: MTT assay, growth inhibition of BT-549 cells; conditions: 96-hr culture, read-out: IC50 ± SD, BT-549
Description: as §1, §2, §3

[5] = tested on: human gastric cancer cell line SGC-7901; test: MTT assay, growth inhibition of SGC-7901 cells; conditions: 96-hr culture, read-out: IC50 ± SD, SGC-7901
Description: as §1, §2, §3

[6] = tested on: human liver cancer cell line SMMC-7721; test: MTT assay, growth inhibition of SMMC-7721 cells; conditions: 96-hr culture, read-out: IC50 ± SD, SMMC-7721
Description: as §1, §2, §3

CS(=O)(=O)N1CCN(Cc2cc3c(N4CCOCC4)nc(-c4ccnc5[nH]ccc45)nn3c2)CC1 [Compound I-3]
IC50 [1]: 0.78 ± 0.36 µM | IC50 [2]: 2.73 ± 0.52 µM | IC50 [3]: 0.96 ± 0.31 µM | IC50 [4]: 1.99 ± 0.07 µM | IC50 [5]: 2.52 ± 0.06 µM | IC50 [6]: 1.72 ± 0.07 µM

CS(=O)(=O)N1CCN(Cc2cc3c(N4CCOCC4)nc(-c4cnc(N)nc4)nn3c2)CC1 [Compound I-4]
IC50 [1]: 1.17 ± 0.14 µM | IC50 [2]: 0.62 ± 0.06 µM | IC50 [3]: 1.21 ± 0.04 µM | IC50 [4]: 0.61 ± 0.07 µM | IC50 [5]: 0.83 ± 0.03 µM | IC50 [6]: 0.63 ± 0.11 µM

CC(C)(O)c1cc2c(N3CCOCC3)nc(-c3cccc4[nH]ncc34)nn2c1 [Compound I-6]
IC50 [1]: 1.05 ± 0.64 µM | IC50 [2]: 1.35 ± 0.28 µM | IC50 [3]: 2.15 ± 0.19 µM | IC50 [4]: 2.6 ± 0.67 µM | IC50 [5]: 1.01 ± 0.02 µM | IC50 [6]: 1.84 ± 0.32 µM

Nc1ncc(-c2nc(N3CCOCC3)c3cc(CN4CCN(C(=O)C5CC5)CC4)cn3n2)cn1 [Compound I-9]
IC50 [1]: 0.93 ± 0.18 µM | IC50 [2]: 3.21 ± 0.38 µM | IC50 [3]: 0.87 ± 0.16 µM | IC50 [4]: 0.41 ± 0.11 µM | IC50 [5]: 2.51 ± 0.35 µM | IC50 [6]: 3.14 ± 0.38 µM

CC(=O)N1CCN(Cc2cc3c(N4CCOCC4)nc(-c4cnc(N)nc4)nn3c2)CC1 [Compound I-8]
IC50 [1]: 0.14 ± 0.09 µM | IC50 [2]: 1.03 ± 0.14 µM | IC50 [3]: 0.29 ± 0.05 µM | IC50 [4]: 0.11 ± 0.02 µM | IC50 [5]: 1.42 ± 0.23 µM | IC50 [6]: 1.28 ± 0.23 µM

CS(=O)(=O)N1CCN(C(=O)c2cc3c(N4CCOCC4)nc(-c4cccc5[nH]ncc45)nn3c2)CC1 [Compound I-5]
IC50 [1]: 0.22 ± 0.01 µM | IC50 [2]: 1.96 ± 0.33 µM | IC50 [3]: 0.73 ± 0.02 µM | IC50 [4]: 0.59 ± 0.22 µM | IC50 [5]: 3.35 ± 0.46 µM | IC50 [6]: 2.15 ± 0.19 µM

CS(=O)(=O)N1CCN(Cc2cc3c(N4CCOCC4)nc(-c4cccc5[nH]ccc45)nn3c2)CC1 [Compound I-1]
IC50 [1]: 0.51 ± 0.06 µM | IC50 [2]: 2.61 ± 0.34 µM | IC50 [3]: 0.99 ± 0.04 µM | IC50 [4]: 1.27 ± 0.08 µM | IC50 [5]: 2.15 ± 0.14 µM | IC50 [6]: 1.69 ± 0.18 µM

C[C@H](O)C(=O)N1CCN(Cc2cc3c(N4CCOCC4)nc(-c4cnc(N)nc4)nn3c2)CC1 [Compound I-10]
IC50 [1]: 0.2 ± 0.11 µM | IC50 [2]: 1.48 ± 0.19 µM | IC50 [3]: 0.31 ± 0.08 µM | IC50 [4]: 0.13 ± 0.03 µM | IC50 [5]: 1.29 ± 0.14 µM | IC50 [6]: 1.05 ± 0.24 µM

CS(=O)(=O)N1CCN(Cc2cc3c(N4CCOCC4)nc(-c4cccc5[nH]ncc45)nn3c2)CC1 [Compound I-2]
IC50 [1]: 0.44 ± 0.08 µM | IC50 [2]: 2.95 ± 0.45 µM | IC50 [3]: 0.16 ± 0.03 µM | IC50 [4]: 0.35 ± 0.15 µM | IC50 [5]: 1.35 ± 0.28 µM | IC50 [6]: 2.53 ± 1.49 µM

C[C@@H](O)C(=O)N1CCN(Cc2cc3c(N4CCOCC4)nc(-c4cnc(N)nc4)nn3c2)CC1 [Compound I-11]
IC50 [1]: 0.25 ± 0.12 µM | IC50 [2]: 1.5 ± 0.2 µM | IC50 [3]: 0.85 ± 0.18 µM | IC50 [4]: 0.29 ± 0.13 µM | IC50 [5]: 1.49 ± 0.15 µM | IC50 [6]: 2.05 ± 0.28 µM

CCS(=O)(=O)N1CCN(Cc2cc3c(N4CCOCC4)nc(-c4cnc(N)nc4)nn3c2)CC1 [Compound I-7]
IC50 [1]: 0.29 ± 0.13 µM | IC50 [2]: 1.93 ± 0.23 µM | IC50 [3]: 0.47 ± 0.09 µM | IC50 [4]: 0.34 ± 0.04 µM | IC50 [5]: 2.39 ± 0.48 µM | IC50 [6]: 1.63 ± 0.39 µM

CS(=O)(=O)N1CCN(Cc2cc3nc(-c4cccc5[nH]ncc45)nc(N4CCOCC4)c3s2)CC1 [GDC-0941, reference compound]
IC50 [1]: 0.22 ± 0.02 µM | IC50 [2]: 1.98 ± 0.34 µM | IC50 [3]: 0.78 ± 0.02 µM | IC50 [4]: 0.59 ± 0.22 µM | IC50 [5]: 9.37 ± 1.43 µM | IC50 [6]: 2.45 ± 0.19 µM
